Source: publication PMC10606064, “2-Aminothiazole-Flavonoid Hybrid Derivatives Binding to Tau Protein and Responsible for Antitumor Activity in Glioblastoma” (International Journal of Molecular Sciences, 2023)

What was measured:
U87 shCTRL cells = experiment: MTT cell viability assay, U87 shCTRL (expressing Tau); assay type: cell-based, human; conditions: for IC50: Homo sapiens, U87 shCTRL, 72 h, MTT, mean ± SEM, read-out: IC50 (metabolic activity)
Description: All cell lines were purchased from ATCC, Gaithersburg, MD, USA. Cells from human glioblastoma (clones U87 wt, HTB-14; U118, HTB-15; U251, HTB-12; U138, HTB-16), neuroblastoma (clone SK-N-SH, HTB-11), and colorectal adenocarcinoma (clone Caco-2, HTB-37) were routinely grown at 37 °C in a humidified atmosphere containing 5% CO2. Cells were maintained by regular passages in complete media supplemented with 10% FBS, 2mM of L-glutamine, 100 U/mL of penicillin, and 50 U/mL of streptomycin (Invitrogen, Paris, France). For U87 wt, U251, U138, and SK-N-SH cells, the medium consisted of EMEM (Lonza, Levallois Perret, France). U118 and Caco-2 lines were maintained in DMEM. The U87 wt-derived lines, U87 shCTRL, and U87 shTau2 cells were continuously maintained in complete EMEM medium supplemented with 0.4 µg/mL of puromycin. The shRNA sequences and the protocol of clone selection and Tau downregulation were previously described in [20]. For Tau expression rescue, the U87 shCTRL and U87 shTau cells were seeded two days prior to experiments at 4.10^5 cells per 60 mm dish in 6 mL of complete medium. Cells were transfected using LipofectAmine 2000 according to Invitrogen instructions and 8 µg EGFP-free plasmid constructs (for U87 shCTRL) and EGFP-hTau40 plasmid constructs (for U87 shTau) were used in total. One day prior to experiments, all cells were plated in a 96-well microtiter plate to prepare for viability assays. Cells were free from mycoplasma as determined by mycoalert tests (Lonza).
Cells harvested from sub-confluent monolayers were seeded at 15,000 cells per mL in a 96-well microtiter plate (Cambridge Technology, Labège, France) and cultured for 24 h under standard conditions. Standard medium was then replaced by fresh medium containing no drugs or compounds at different concentrations. The surviving cells were quantified after 72 h by the MTT assay, according to the manufacturer’s instructions. Briefly, 20 µL of 3-(4,5-diMethylThiazol-2-yl)-2,5diphenyl Tetrazolium bromide (MTT) solution at 5 mg.mL^−1 was added to cells for 3 h at 37 °C. The supernatant was discarded and replaced by 100 µL of dimethyl sulfoxide to dissolve formazan crystals. The absorbance was then read at 600 nm by spectrophotometry. For all concentrations of a given compound, cell viability was expressed as the percentage of the ratio between the mean absorbance of treated cells and the mean absorbance of untreated cells. Three independent experiments were performed, and the data were expressed as percentage of survival (using the untreated cells as 100%) and subjected to statistical analysis (n = 3). The IC50 was calculated using the Chou and Talalay method.

[1] = tested on: LC3 proteins in U87 shCTRL and shTau cells; experiment: LC3-II/LC3-I ratio by Western blot (autophagosomes); assay type: cell-based, human; conditions: both cell types, 5 µM, 48 h
Description: Cells were lysed with freshly made RIPA buffer derivative (4.3 mL of TBS 1×, 50 µL of SDS 10%, 10 µL of EDTA 0.5 M, 500 µL of Triton 10×, and 1% inhibitors of protease and phosphatase). After 30 min of lysis at 4 °C under agitation, lysates were centrifuged at 10,000× g for 10 min at 4 °C. Equivalent amounts of proteins from the supernatant fraction were subjected to Western blot analysis. Protein samples were loaded (40 μg/lane) and separated on 10 or 12% sodium dodecyl sulfate-polyacrylamide gels. The separated proteins were transferred onto nitrocellulose blotting membrane using the Bio-Rad transfer system. […] The band intensity was quantified using the ImageJ v1.50g software. […] The band intensity was quantified using the NIH ImageJ v1.50g software.
Figure 4 Compounds (2) and (9) affect autophagy function machinery and alter mitochondrial morphology. […] (A) Quantities of autophagy LC3 proteins were analyzed by Western blot of U87 shCTRL and U87 shTau cells: for each sample, the ratio of the amount of mature (LC3-II) to immature (LC3-I) isoform was calculated as relative fold of the reference value (with or without the compound); significant statistical differences were calculated using one-way ANOVA with a post hoc Tukey–Kramer HSD test with (*) p < 0.01 from three independent experiments; ns: non-significant. […]

IC50 (U87 shCTRL cells) [µM] | SMILES | ratio of mature LC3-II to immature LC3-I [1] | activity against U87 shCTRL cells compared to U87 shTau cells (U87 shCTRL cells; ratio of IC50 values) [times]
> 100 | Nc1nc2ccc3oc(C(=O)O)cc(=O)c3c2s1 [Compound 5] | no statistically significant changes in ratios | –
1.4 ± 0.5 | Nc1nc2ccc3oc(-c4cccc(Oc5ccccc5)c4)cc(=O)c3c2s1 [Compound 2, 2-amino-7-(3-phenoxyphenyl)-9H-chromeno [6,5-d]thiazol-9-one] | no statistically significant changes in ratios | 3
